Columns and labels:
[1] = Emission spectrum test in aqueous solution under excitation of white light; assay type: physicochemical; details: 10 μmol·L^−1, white light excitation
Description: (3) Emission spectrum test of fluorescent probe coated nanoparticles: The emission spectra of HY6CT-NPs, FY6CT-NPs and CY6CT-NPs in aqueous solution were tested with steady-state transient fluorescence spectrometer, at a test concentration of 10 μmol·L^−1.

[2] = NIR-II fluorescence imaging of aqueous solutions in PE tubes under excitation of white light; assay type: physicochemical; details: aqueous solution, 10 μmol·L^−1
From the text: Using NIR-II small animal imager, the PE tubes filled with the same concentration of nano-imaging probes were imaged at a test concentration of 10 μmol·L^−1.

For `CC1(C)C(/C=C/C=C/C=C/C=C2\N(CCCCS(=O)(=O)[O-])c3ccc4ccccc4c3C2(C)C)=[N+](CCCCS(=O)(=O)[O-])c2ccc3ccccc3c21.[Na+]` [ICG], the “emission spectrum under white light (in words)” value [1] was “can hardly be detected” and the “NIR-II fluorescence signal under excitation of white light (in words)” value [2] was “could not detect fluorescence signals”.

From US20250236789A1, “SECOND NEAR-INFRARED ORGANIC FLUORESCENT PROBE, PREPARATION METHOD AND USE THEREOF” (INNER MONGOLIA UNIVERSITY, priority 2024, published 2025)
